Assay results published in the NIST ThermoML archive (doi:10.1021/acs.jced.6b00606).

How the values were obtained:
[1] = xn = mol fraction of the nth substance listed; conditions: 100 kPa, Liquid; for speed of sound: Frequency=3 MHz, Sing-around technique in a fixed-path interferometer; for mass density: Vibrating tube method
[2] = excess molar enthalpy (molar enthalpy of mixing); xn = mol fraction of the nth substance listed; conditions: 308.15 K, 1e-07 kPa, Liquid, Calvet calorimetry

O=C1CCCCCC1 [cycloheptanone] + C1CCOCC1
[1]
Conditions | mass density, 293.15 K [kg/m3] | mass density, 298.15 K [kg/m3] | mass density, 303.15 K [kg/m3] | mass density, 308.15 K [kg/m3] | speed of sound, 293.15 K [m/s] | speed of sound, 298.15 K [m/s] | speed of sound, 303.15 K [m/s] | speed of sound, 308.15 K [m/s]
x2 = 0.0845 | 948.05 | 943.9 | 939.65 | 935.43 | 1457.2 | 1435 | 1411.9 | 1389.1
x2 = 0.1276 | 946.02 | 941.88 | 937.63 | 933.42 | 1447.3 | 1424.9 | 1401.8 | 1378.9
x2 = 0.1794 | 943.48 | 939.35 | 935.11 | 930.88 | 1435.5 | 1413 | 1389.8 | 1366.9
x2 = 0.2172 | 941.57 | 937.43 | 933.19 | 928.95 | 1427.2 | 1404.5 | 1381.3 | 1358.4
x2 = 0.254 | 939.66 | 935.51 | 931.26 | 927.02 | 1419.2 | 1396.5 | 1373.2 | 1350.2
x2 = 0.3098 | 936.64 | 932.46 | 928.23 | 923.95 | 1407.4 | 1384.5 | 1361.1 | 1338.2
x2 = 0.341 | 934.9 | 930.72 | 926.47 | 922.18 | 1400.9 | 1378 | 1354.6 | 1331.6
x2 = 0.3982 | 931.59 | 927.36 | 923.12 | 918.8 | 1389.4 | 1366.4 | 1342.9 | 1319.9
x2 = 0.4407 | 929.02 | 924.78 | 920.53 | 916.18 | 1381.2 | 1358 | 1334.6 | 1311.6
x2 = 0.4986 | 925.38 | 921.12 | 916.82 | 912.46 | 1370.2 | 1346.9 | 1323.6 | 1300.6
x2 = 0.5312 | 923.24 | 918.96 | 914.66 | 910.27 | 1364.3 | 1340.9 | 1317.5 | 1294.6
x2 = 0.5779 | 920.07 | 915.78 | 911.43 | 907.03 | 1355.9 | 1332.6 | 1309.2 | 1286.3
x2 = 0.6295 | 916.42 | 912.11 | 907.7 | 903.26 | 1347.1 | 1323.7 | 1300.3 | 1277.4
x2 = 0.6717 | 913.29 | 908.95 | 904.49 | 900.02 | 1340.1 | 1316.6 | 1293.3 | 1270.5
x2 = 0.7229 | 909.34 | 904.97 | 900.41 | 895.9 | 1331.9 | 1308.4 | 1285.2 | 1262.4
x2 = 0.7686 | 905.66 | 901.22 | 896.58 | 892.03 | 1324.8 | 1301.4 | 1278.2 | 1255.4
x2 = 0.8202 | 901.28 | 896.77 | 892.03 | 887.39 | 1317.2 | 1293.7 | 1270.6 | 1247.9
x2 = 0.8742 | 896.48 | 891.84 | 886.98 | 882.23 | 1309.5 | 1286.1 | 1263 | 1240.4

[2]
Conditions | excess molar enthalpy [kcal/mol]
x2 = 0.0898 | 0.0131
x2 = 0.1356 | 0.0179
x2 = 0.1846 | 0.0214
x2 = 0.2366 | 0.025
x2 = 0.2882 | 0.0271
x2 = 0.3312 | 0.0284
x2 = 0.3942 | 0.0295
x2 = 0.4412 | 0.0298
x2 = 0.4895 | 0.0298
x2 = 0.5326 | 0.0295
x2 = 0.5842 | 0.0287
x2 = 0.6335 | 0.0277
x2 = 0.6875 | 0.0261
x2 = 0.7289 | 0.0245
x2 = 0.7789 | 0.022
x2 = 0.8278 | 0.0185
x2 = 0.8799 | 0.0146
x2 = 0.9199 | 0.0104
